Experimental data published in patent US20090258030A1, “Materials and Methods for Improving Livestock Productivity” (priority 2006, published 2009).
Structures can show the parent of a compound that is named as a salt.

Experiments:
[1] = Cysteamine used to fatten pigs (Example 8); type: in vivo; conditions: 190 ppm
[2] = Effect of cysteamine compound on small-fat-tail sheep (Example 6); type: in vivo
Source text: In the following example, the test animals were sheep (small-fat-tail sheep). In total, 40 heads of small-fat-tail sheep with the average weight of 26.5 kg were randomly divided into Control group (20) and Cysteamine group (20). The control group was fed with basal diet only, while the Cysteamine group was fed a diet that included 900 g cysteamine HCl per tonnage of diet. The standard basal diet of the farm was employed for this trial.

[3] = Effect of cysteamine compound on crossbreed sheep (Example 6); type: in vivo
[4] = Effect of cysteamine hydrochloride on productivity of pregnant pig sows (Example 1); type: in vivo, swine (D×L×M hybrid swine)
Source text: A total of 14 heads of pregnant pig sow (which were the offspring of Duroc×Landrace×Meishan swine, also referred to herein as D×L×M hybrid swine) (84 days of pregnant) were divided into 2 groups: Control group (6) and Cysteamine group (8). The Control group was fed with basal diet. […]

[5] = Intestine villi length and histology in pigs (Example 4); type: in vivo, swine; conditions: 150 g of cysteamine hydrochloride per ton of feed; 30 days
Method: 72 piglets were evenly divided into control group and Cysteamine group. The control group was treated with basal diet only, while the Cysteamine group was added with 150 g of cysteamine hydrochloride per ton of feed. The trial was lasted for 30 days.
Immediately after evisceration, tissue samples from the small intestine, large intestine, liver, and pancreas of pigs from each treatment group were collected. The collected samples were placed in properly labeled containers containing 10% buffered neutral formalin solution. The tissue samples were fixed for 78 hours before they were processed for routine histological examination using the paraffin embedding technique (well-known to the skilled artisan).
Sections approximately 5 to 6μ thick were cut from paraffin blocked tissues using Optical 820 Rotary Microtome (Scientific Instruments Division, Buffalo, N.Y.). Some sections were stained with hematoxylin and eosin (H & E), others with Alcian blue. H & E stained sections were used for the examination of the general histology of the intestinal tract while the Alcian blue stained sections were used for goblet cells identification. The stained sections were examined under various magnifications using a light microscope.
The number and length (μm) of villi in the small intestine were counted per microscopic field; the thickness of the tunica muscularis in the small and large intestine were measured using American Optical Micrometer (American Optical Company, Buffalo, N.Y.) calibrated in millimeters. The mucosal folds in the large intestine, the density of intestinal glands (crypts), the appearance of the surface epithelium were all observed. The general histology of the liver and pancreas were examined and compared between Cysteamine treated and non-Cysteamine treated groups. Goblet cell density in the Cysteamine treated and non-Cysteamine treated pigs was compared through visual examination using light microscope.

[6] = 900 g cysteamine HCl per tonnage of diet, after 35 days
[7] = 900 g/tonnage, 35 days, 20 head
[8] = 900 g/tonnage, 35 days, vs control
[9] = feed consumed, 900 g/tonnage, 35 days, 20 head
[10] = 150 g cysteamine hydrochloride per ton feed, after 49 days, vs control
[11] = late phase pregnant sow, dosage 500 g/T, from 84 days of pregnant to weaning

SMILES: NCCS [Cysteamine Hydrochloride, cysteamine hydrochloride]
- ADG ([1]; from 68 kg to market (35 days)): 1182 g
- Age ([1]; from 68 kg to market (35 days)): 187 days
- Ave. backfat thickness (cm) ([1]; from 68 kg to market (35 days)): 2.1 cm
- Back fat thickness (neck) (cm) ([1]; from 68 kg to market (35 days)): 3.0 cm
- Back fat thickness, Hip (cm) ([1]; from 68 kg to market (35 days)): 1.4 cm
- Back fat thickness, Middle part (cm) ([1]; from 68 kg to market (35 days)): 1.8 cm
- Body weight after slaughtering ([1]; from 68 kg to market (35 days)): 86 kg
- Body weight before slaughtering ([1]; from 68 kg to market (35 days)): 106 kg
- FCR ([1]; from 68 kg to market (35 days)): 2.71
- Feed consumption ([1]; from 68 kg to market (35 days)): 103 kg
- Loin eye diameter (cm) ([1]; from 68 kg to market (35 days)): 33.0 cm
- ADG: Improvement ([1]; vs control): 125 g
- ADG: Improvement (%) ([1]; vs control): 11.79%
- Age: Improvement ([1]; vs control): -5 days
- Age: Improvement (%) ([1]; vs control): −2.60%
- Ave. backfat thickness: Improvement ([1]; vs control): −0.5 cm
- Ave. backfat thickness: Improvement (%) ([1]; vs control): −18.42%
- Back fat thickness (neck): Improvement ([1]; vs control): −0.6 cm
- Back fat thickness (neck): Improvement (%) ([1]; vs control): −16.67%
- Back fat thickness, Hip: Improvement ([1]; vs control): −0.2 cm
- Back fat thickness, Hip: Improvement (%) ([1]; vs control): −12.50%
- Back fat thickness, Middle part: Improvement ([1]; vs control): −0.6 cm
- Back fat thickness, Middle part: Improvement (%) ([1]; vs control): −25.00%
- Body weight after slaughtering: Improvement ([1]; vs control): 2 kg
- Body weight after slaughtering: Improvement (%) ([1]; vs control): 2.38%
- Body weight before slaughtering: Improvement ([1]; vs control): 2 kg
- Body weight before slaughtering: Improvement (%) ([1]; vs control): 1.92%
- FCR: Improvement ([1]; vs control): −0.26
- FCR: Improvement (%) ([1]; vs control): −8.80%
- Feed consumption: Improvement ([1]; vs control): -4 kg
- Feed consumption: Improvement (%) ([1]; vs control): −3.74%
- Loin eye diameter: Improvement ([1]; vs control): 2.5 cm
- Loin eye diameter: Improvement (%) ([1]; vs control): 8.20%
- amount of silage necessary in raising the sheep [2, 6]: reduction
- weight (ADG) vs control [2, 6]: statistically significant increase
- Daily weight gain (g/head/day) ([2]; 900 g/tonnage, 35 days): 95.71 g/head/day
- Final weight (kg/head) ([2]; 900 g/tonnage, 35 days): 28.92 kg/head
- Weight gain (kg/head) ([2]; 900 g/tonnage, 35 days): 3.350 kg/head
- Total feed consumption [2, 7]: 1019.38 kg
- Daily weight gain: Improvement (%) [2, 8]: 30.9%
- Silage: Improvement (%) [2, 8]: −16.22%
- Weight gain: Improvement (%) [2, 8]: 30.9%
- Concentrate [2, 9]: 245 kg
- Hay [2, 9]: 350.00 kg
- Silage [2, 9]: 424.38 kg
- amount of silage necessary in raising the sheep [3, 6]: reduction
- weight (ADG) vs control [3, 6]: statistically significant increase
- ADG (g/head/day) ([3]; 900 g/tonnage, 35 days): 82.29 g/head/day
- Final weight (kg/head) ([3]; 900 g/tonnage, 35 days): 29.59 kg/head
- Weight gain (kg/head) ([3]; 900 g/tonnage, 35 days): 2.88 kg/head
- Total feed consumption [3, 7]: 1001.2 kg
- ADG: Improvement (%) [3, 8]: 46.2%
- Silage: Improvement (%) [3, 8]: −5.14%
- Weight gain: Improvement (%) [3, 8]: 46.2%
- Concentrate [3, 9]: 245 kg
- Hay [3, 9]: 350.0 kg
- Silage [3, 9]: 406.2 kg
- increase in litter weight [4, 10]: 13.28%
- increase in piglet born weight [4, 10]: 12.43%
- increase in weaning weight [4, 10]: 8.00%
- Body weight of weaned piglet (kg/head) ([4]; dosage 500 g/T, piglets weaning age 19 days): 6.21 kg/head
- Birth weight per litter: Improvement ([4]; dosage 500 g/T, vs control): 2.50 kg
- Birth weight per litter: Improvement (%) ([4]; dosage 500 g/T, vs control): 13.28%
- Birth weight per piglet: Improvement ([4]; dosage 500 g/T, vs control): 0.23 kg/head
- Birth weight per piglet: Improvement (%) ([4]; dosage 500 g/T, vs control): 12.43%
- Body weight of weaned piglet: Improvement ([4]; dosage 500 g/T, vs control): 0.46 kg/head
- Body weight of weaned piglet: Improvement (%) ([4]; dosage 500 g/T, vs control): 8.00%
- Live piglet born rate: Improvement ([4]; dosage 500 g/T, vs control): 0.00%
- Live piglet born rate: Improvement (%) ([4]; dosage 500 g/T, vs control): 0.00%
- Birth weight per litter [4, 11]: 21.32 kg
- Birth weight per piglet (kg/head) [4, 11]: 2.08 kg/head
- Live piglet born per litter (head) [4, 11]: 10.29 head
- Live piglet born rate (%) [4, 11]: 100.00%
- Piglet born per litter (head) [4, 11]: 10.29 head
- Total live piglet born (head) [4, 11]: 82 head
- Total piglet born (head) [4, 11]: 82 head
- Villi Length, Small Intestines [5]: 2.15 ± 0.09^A
- goblet cells in the small and large intestine vs non-Cysteamine-treated [5]: noticeably larger and highly distended
- number and length of small intestinal villi vs non-Cysteamine treated [5]: more numerous and longer
